Test results from patent US20250215011A1, “T-TYPE CALCIUM CHANNEL MODULATORS COMPRISING A DIAZASPIROHEPTANE CORE AND METHODS OF USE THEREOF” (Praxis Precision Medicines, Inc., priority 2022, published 2025).

Biological target: Human Cav3.1 (Homo sapiens (Human), UniProt O43497)
Assay: Cav3.1 automated patch clamp assay (SyncroPatch 384PE), HEK-293 natClytin/TASK1+Cav3.1 cell line
Format: cell-based
Conditions: Table 1, HEK-293 natClytin/TASK1+Cav3.1 cells
Description: Inhibition of the T-type voltage gated calcium channel (Cav3.1) was evaluated using a HEK-293 natClytin/TASK1+Cav3.1 cell line. Currents were recorded using the SyncroPatch 384PE automated, patch clamp system. Pulse generation and data collection were performed with PatchController384 V1.3.0 and DataController384 V1.2.1 (Nanion Technologies). Off-line analysis was performed using Excel and Graphpad Prism (V 8.4.2) with complete data files uploaded to Dotmatics. The access resistance and apparent membrane capacitance were estimated using built-in protocols. Current was recorded in whole cell configuration from a population of cells. The cells were lifted, triturated, and resuspended at 800,000 cells/ml. The cells were allowed to recover in the cell hotel prior to experimentation. Currents were recorded at room temperature. The external solution contained the following (in mM): NaCl 80, NMDG 60, KCl 4, MgCl2 1, CaCl2 6, glucose 5 and HEPES 10 (pH=7.4, Osmolarity ˜300 mOsm). The extracellular solution was used as the wash, reference and compound delivery solution. The internal solution contained the following (in mM): CsF 110, CsCl 10, NaCl 10, EGTA 10, HEPES 10 (pH=7.2, Osmolarity ˜295 mOsm). The compound plate was created at 2× concentrated in the extracellular solution. The compound was diluted to 1:2 when added to the recording well. The amount of […] in the extracellular solution was held constant at the level used for the highest tested concentration. For the voltage clamp experiments on Cav3.1, data were sampled at 10 KHz. After establishment of the seal and the passage in the whole cell configuration, the cells were held at −120 mV. Cav3.1 current was evoked using a 100 ms step to −20 mV (to measure resting state block), followed by a 1600 ms step to −65 mV and a second 100 ms step to −20 mV (to measure voltage dependent block). The voltage protocol was applied every 15 seconds in the absence and in the presence of the compounds under investigation. […] Current amplitude (pA) was measured in the peak 1 and 2. The average of last 3 sweeps of each liquid period (vehicle, compound under investigation, full block) was calculated. Nickel-sensitive current was used to calculate the % of inhibition in the presence of the compound under investigation.

Chain of Human Cav3.1 (O43497 whole entry): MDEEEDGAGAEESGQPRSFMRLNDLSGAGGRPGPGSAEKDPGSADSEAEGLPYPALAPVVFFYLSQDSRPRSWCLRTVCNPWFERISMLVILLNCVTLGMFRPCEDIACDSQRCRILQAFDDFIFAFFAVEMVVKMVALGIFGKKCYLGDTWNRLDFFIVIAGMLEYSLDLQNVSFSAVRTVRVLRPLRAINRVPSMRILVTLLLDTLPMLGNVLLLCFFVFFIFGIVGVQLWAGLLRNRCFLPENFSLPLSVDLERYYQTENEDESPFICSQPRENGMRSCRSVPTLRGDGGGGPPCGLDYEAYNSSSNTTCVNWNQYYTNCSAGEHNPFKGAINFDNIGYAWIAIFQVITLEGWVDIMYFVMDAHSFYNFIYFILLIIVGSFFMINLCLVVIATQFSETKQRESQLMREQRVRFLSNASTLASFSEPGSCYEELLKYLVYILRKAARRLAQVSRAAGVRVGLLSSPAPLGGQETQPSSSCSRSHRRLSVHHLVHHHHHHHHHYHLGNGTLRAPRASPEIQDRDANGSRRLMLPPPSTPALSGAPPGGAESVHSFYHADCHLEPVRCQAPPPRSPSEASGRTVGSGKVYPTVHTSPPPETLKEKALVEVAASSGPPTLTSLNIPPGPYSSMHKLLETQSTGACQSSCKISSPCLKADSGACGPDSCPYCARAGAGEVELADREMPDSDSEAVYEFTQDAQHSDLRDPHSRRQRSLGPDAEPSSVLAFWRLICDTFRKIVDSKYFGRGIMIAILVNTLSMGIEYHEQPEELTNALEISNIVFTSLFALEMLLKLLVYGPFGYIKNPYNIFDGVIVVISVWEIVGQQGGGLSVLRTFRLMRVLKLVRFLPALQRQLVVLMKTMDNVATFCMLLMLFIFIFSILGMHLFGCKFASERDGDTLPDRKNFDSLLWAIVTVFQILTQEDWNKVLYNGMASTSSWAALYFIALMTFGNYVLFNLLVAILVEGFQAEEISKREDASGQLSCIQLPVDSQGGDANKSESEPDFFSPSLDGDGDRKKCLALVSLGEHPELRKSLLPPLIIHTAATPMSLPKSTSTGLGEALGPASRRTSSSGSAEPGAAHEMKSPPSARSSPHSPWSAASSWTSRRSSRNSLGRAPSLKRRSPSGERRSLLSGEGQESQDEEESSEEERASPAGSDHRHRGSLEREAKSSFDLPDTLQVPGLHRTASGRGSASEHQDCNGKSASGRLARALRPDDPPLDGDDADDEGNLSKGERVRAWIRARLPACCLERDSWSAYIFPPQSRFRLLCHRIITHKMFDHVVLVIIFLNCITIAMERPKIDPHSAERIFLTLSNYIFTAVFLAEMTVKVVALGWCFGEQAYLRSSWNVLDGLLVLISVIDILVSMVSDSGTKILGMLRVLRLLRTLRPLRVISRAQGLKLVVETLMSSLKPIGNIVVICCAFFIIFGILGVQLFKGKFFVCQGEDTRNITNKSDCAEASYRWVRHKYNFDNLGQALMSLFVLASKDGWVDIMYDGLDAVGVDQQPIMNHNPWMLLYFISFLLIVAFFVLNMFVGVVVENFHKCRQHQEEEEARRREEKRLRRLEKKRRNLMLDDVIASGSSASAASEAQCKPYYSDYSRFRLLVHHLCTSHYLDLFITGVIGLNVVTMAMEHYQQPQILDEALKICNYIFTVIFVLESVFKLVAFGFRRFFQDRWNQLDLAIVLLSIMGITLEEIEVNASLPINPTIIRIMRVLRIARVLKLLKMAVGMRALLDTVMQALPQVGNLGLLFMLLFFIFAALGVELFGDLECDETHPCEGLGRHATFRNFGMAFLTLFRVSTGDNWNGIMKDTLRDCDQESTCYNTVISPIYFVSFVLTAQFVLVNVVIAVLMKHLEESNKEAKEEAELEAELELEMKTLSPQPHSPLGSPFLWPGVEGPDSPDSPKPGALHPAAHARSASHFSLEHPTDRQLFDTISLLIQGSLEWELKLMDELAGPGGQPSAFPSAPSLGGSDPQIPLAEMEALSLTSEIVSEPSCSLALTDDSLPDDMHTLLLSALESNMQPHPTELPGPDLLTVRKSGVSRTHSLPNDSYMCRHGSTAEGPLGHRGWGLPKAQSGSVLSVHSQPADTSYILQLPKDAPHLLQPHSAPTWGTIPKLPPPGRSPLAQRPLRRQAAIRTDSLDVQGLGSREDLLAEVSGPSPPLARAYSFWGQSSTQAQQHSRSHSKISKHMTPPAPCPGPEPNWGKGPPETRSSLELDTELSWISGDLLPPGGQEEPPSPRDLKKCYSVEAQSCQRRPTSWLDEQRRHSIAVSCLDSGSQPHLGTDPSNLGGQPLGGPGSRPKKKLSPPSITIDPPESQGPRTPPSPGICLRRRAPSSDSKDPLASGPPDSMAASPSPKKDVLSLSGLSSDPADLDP

`COc1cc(F)cc(NC(=O)CN2CC3(C2)CN(CC(=O)NC(C)(C)C)C3)c1` [Example 2] and `Cc1cc(F)cc(NC(=O)CN2CC3(C2)CN(CC(=O)NC(C)(C)C)C3)c1` [Example 4] fall in the same range of IC50: 1 to 10 µM for the first, 1 to 10 µM for the second.

`Cc1cc(NC(=O)CN2CC3(C2)CN(CC(=O)NC(C)(C)C)C3)nn1-c1ccccc1` [Example 7] and `CC(C)(C)NC(=O)CN1CC2(CN(CC(=O)Nc3cccc(Cl)c3)C2)C1` [Example 6] cannot be ordered by IC50: ≥ 10 µM for the first, 1 to 10 µM for the second.

First: CC(C)(C)NC(=O)CN1CC2(CN(CC(=O)Nc3cc(Cl)cc(Cl)c3)C2)C1 [Example 1, N-(tert-butyl)-2-(6-(2-((3,5-dichlorophenyl)amino)-2-oxoethyl)-2,6-diazaspiro[3.3]heptan-2-yl)acetamide]
Second: CC(C)(C)NC(=O)CN1CC2(CN(CC(=O)Nc3ccc(F)c(Cl)c3)C2)C1 [Example 5]
The IC50 of the first is lower: < 1 µM for the first, 1 to 10 µM for the second. The first is the more potent here.

`CC(C)(C)NC(=O)CN1CC2(CN(CC(=O)Nc3cccc(Cl)c3F)C2)C1` [Example 8] and `CC(C)(C)NC(=O)CN1CC2(CN(CC(=O)Nc3cc(F)cc(C(F)F)c3)C2)C1` [Example 3] cannot be ordered by IC50: ≥ 10 µM for the first, 1 to 10 µM for the second.

Same assay, conditions: Table 2, HEK-293 natClytin/TASK1+Cav3.1 cells

`Fc1cc(Cl)c2nc(CN3CC4(CN(CCC5CCCC5)C4)C3)[nH]c2c1` [Example 34] and `CC(C)(C)CCN1CC2(C1)CN(Cc1nc3c(Cl)cc(F)cc3[nH]1)C2` [Example 33] cannot be ordered by IC50: < 1 µM for the first, < 1 µM for the second.

First: O=C(CN1CC2(C1)CN(Cc1nc(-c3ccccc3)co1)C2)Nc1cc(F)cc(Cl)c1 [Example 28]
Second: O=C(CN1CC2(C1)CN(Cc1coc(-c3ccccc3)n1)C2)Nc1cc(F)cc(Cl)c1 [Example 15]
The IC50 of the first is higher: 1 to 10 µM for the first, < 1 µM for the second. The second is the more potent here.

Compared with `CC(C)(C)NC(=O)CN1CC2(C1)CN(Cc1nc3cc(F)cc(Cl)c3[nH]1)C2` [Example 9, N-(tert-butyl)-2-(6-((7-chloro-5-fluoro-1H-benzo[d]imidazol-2-yl)methyl)-2,6-diazaspiro[3.3]heptan-2-yl)acetamide], `Cc1cc(F)cc2[nH]c(CN3CC4(CN(CC(=O)NC(C)(C)C)C4)C3)nc12` [Example 38] is higher in IC50: < 1 µM for the first, 1 to 10 µM for the second.

`CC(C)(C)CCN1CC2(C1)CN(CC(=O)Nc1cc(F)cc(Cl)c1)C2` [Example 21] and `CC(C)(C)NC(=O)CN1CC2(CN(CC(=O)Nc3cc(F)cc(Cl)c3)C2)C1` [Example 11] cannot be ordered by IC50: < 1 µM for the first, < 1 µM for the second.

`CCC(C)(C)NC(=O)CN1CC2(C1)CN(Cc1nc3c(Cl)cc(F)cc3[nH]1)C2` [Example 32] and `CC(C)(NC(=O)CN1CC2(C1)CN(Cc1nc3c(Cl)cc(F)cc3[nH]1)C2)C(F)(F)F` [Example 31] cannot be ordered by IC50: < 1 µM for the first, < 1 µM for the second.

`Fc1cc(Cl)c2nc(CN3CC4(C3)CN(CC3CCC(F)(F)CC3)C4)[nH]c2c1` [Example 36] and `CC(C)(C)CCCN1CC2(C1)CN(Cc1nc3c(Cl)cc(F)cc3[nH]1)C2` [Example 35] cannot be ordered by IC50: < 1 µM for the first, < 1 µM for the second.

First: COc1cccc(CN2CC3(CN(CC(=O)Nc4cc(F)cc(Cl)c4)C3)C2)c1 [Example 24]
Second: O=C(CN1CC2(C1)CN(Cc1cccc(Cl)c1)C2)Nc1cc(F)cc(Cl)c1 [Example 25]
The IC50 of the first is higher: 1 to 10 µM for the first, < 1 µM for the second. The second is the more potent here.

`CC(C)(C)NC(=O)CN1CC2(C1)CN(CC(=O)NC13CC4CC(CC(C4)C1)C3)C2` [Example 12] and `CC(C)(C)NC(=O)CN1CC2(CN(CC(=O)Nc3cc(F)cc(OC(F)F)c3)C2)C1` [Example 41] fall in the same range of IC50: 1 to 10 µM for the first, 1 to 10 µM for the second.

`O=C(CN1CC2(CN(CCC3CCCC3)C2)C1)Nc1cc(F)cc(Cl)c1` [Example 20] and `O=C(CN1CC2(CN(CCC3CCC(F)(F)CC3)C2)C1)Nc1cc(F)cc(Cl)c1` [Example 26] cannot be ordered by IC50: < 1 µM for the first, < 1 µM for the second.

`CC(C)(C)NC(=O)CN1CC2(C1)CN(C(=O)Nc1cc(F)cc(Cl)c1)C2` [Example 43] and `CCC(C)(C)NC(=O)CN1CC2(CN(CC(=O)Nc3cc(F)cc(Cl)c3)C2)C1` [Example 10, N-(3-chloro-5-fluoro-phenyl)-2-[2-[2-(1,1-dimethylpropylamino)-2-oxo-ethyl]-2,6-diazaspiro[3.3]heptan-6-yl]acetamide] cannot be ordered by IC50: < 1 µM for the first, < 1 µM for the second.

`Cc1nc(CN2CC3(CN(CC(=O)Nc4cc(F)cc(Cl)c4)C3)C2)co1` [Example 22] and `Cc1coc(CN2CC3(CN(CC(=O)Nc4cc(F)cc(Cl)c4)C3)C2)n1` [Example 30] fall in the same range of IC50: 1 to 10 µM for the first, 1 to 10 µM for the second.

`O=C(CN1CC2(C1)CN(Cc1cnc(-c3ccccc3)[nH]1)C2)Nc1cc(F)cc(Cl)c1` [Example 23] and `O=C(CN1CC2(C1)CN(Cc1nc3ccccc3[nH]1)C2)Nc1cc(F)cc(Cl)c1` [Example 18] cannot be ordered by IC50: < 1 µM for the first, < 1 µM for the second.

Compared with `CC(C)(C)c1coc(CN2CC3(CN(CC(=O)Nc4cc(F)cc(Cl)c4)C3)C2)n1` [Example 19], `CC(C)(C)c1nc(CN2CC3(CN(CC(=O)Nc4cc(F)cc(Cl)c4)C3)C2)co1` [Example 13] is lower in IC50: 1 to 10 µM for the first, < 1 µM for the second.

First: CC1(NC(=O)CN2CC3(CN(CC(=O)Nc4cc(F)cc(Cl)c4)C3)C2)CCC1 [Example 14]
Second: O=C(CN1CC2(C1)CN(CC(=O)NC1CCCC1)C2)Nc1cc(F)cc(Cl)c1 [Example 16]
The IC50 of the first is lower: < 1 µM for the first, 1 to 10 µM for the second.

Compared with `CC(C)(C)NC(=O)CN1CC2(C1)CN(Cc1nc3c(Cl)cc(Cl)cc3[nH]1)C2` [Example 39], `CC(C)(C)NC(=O)CN1CC2(C1)CN(Cc1nc3c(F)cc(OC(F)F)cc3[nH]1)C2` [Example 40] is higher in IC50: < 1 µM for the first, 1 to 10 µM for the second.

`CC(C)(NC(=O)CN1CC2(CN(CC(=O)Nc3cc(F)cc(Cl)c3)C2)C1)C(F)(F)F` [Example 17] and `CC(C)(C)c1ncc(CN2CC3(CN(CC(=O)Nc4cc(F)cc(Cl)c4)C3)C2)[nH]1` [Example 29] fall in the same range of IC50: 1 to 10 µM for the first, 1 to 10 µM for the second.

First: Cc1cccc2[nH]c(CN3CC4(CN(CC(=O)NC(C)(C)C)C4)C3)nc12 [Example 37]
Second: O=C(CN1CC2(C1)CN(Cc1cccc(C(F)F)c1)C2)Nc1cc(F)cc(Cl)c1 [Example 27]
The IC50 of the first is higher: 1 to 10 µM for the first, < 1 µM for the second.
